Measured values reported in patent US5905149A, “Substituted quinolymethylen-oxindole analogues as tyrosine kinase inhibitors” (Pharmacia & Upjohn S.p.A, priority 1996, dated 1999).

Legend:
[1] = target: p45 v-abl tyrosine kinase; test: p45 v-abl kinase assay; type: biochemical, Abelson murine leukemia virus; conditions: (Val^5)-angiotensin II phosphorylation; peptide 2 mM, ATP 50 μM; pH 8.0; 30° C.; triplicate; read-out: Inhibition of p45 v-abl kinase, IC50
Description: p45 v-abl kinase purification
The enzyme used in our tests is the p45 v-abl tyrosine kinase which represents the catalytic domain of the Abelson tyrosine kinase (isolated from the Abelson murine leukemia virus). The p45 v-abl kinase is produced and isolated as described by Wang et al. in J.Biol.Chem. 260, 64 (1985) and by Ferguson et al. in J. Biol. Chem. 260, 3652 (1985) and in Biochem. J. 257, 321 (1989).
(Val^5)-angiotensin II phosphorylation is performed, by incubation with 40 ng of purified abl-kinase and (γ-^32 P) ATP, in 50 μl of buffer containing Tris-HCl 25 mM, pH 8.0, MgCl2 10 mM and dithiothreitol 0.1 mM (kinase buffer). The reaction mixture is incubated for the indicated time at 30° C. and the reaction stopped by adding 50 μl of 5% trichloracetic acid. After a brief incubation on ice the tubes are centrifuged. The supernatants are spotted on phosphocellulose paper squares (Whatman P-81) and washed extensively in acetic acid. The radioactivity bound to dried phosphocellulose squares is measured in a liquid scintillation counter. IC50 values are calculated from triplicated determination of each experimental point. Each inhibitor is tested at concentrations ranging from […] in the presence of fixed concentrations of peptide (2 mM) and ATP (50 μM).

[2] = tested on: K562 cells, a human myelogenous leukemia cell line; test: K562 cell growth inhibition assay; type: cell-based; conditions: 72 h, cell counting vs untreated control cells
Description: K562 cell growth inhibition assay
K562 cells, a human myelogenous leukemia cell line, were seeded into a 24 wells tissue culture plate (Falcon 3047) (10000/well) in the presence of increasing concentrations of the compounds. After 72 h, cells were harvested and were counted using a cell counter (Coulter Counter-ZM). The percent of inhibition was evaluated in respect to the untreated control cells.

## CCOC(=O)C(C)Oc1ccc(C=C2C(=O)Nc3ccccc32)c2cccnc12 (centres unmarked) [2-[5-(2-oxindol-3-ylidenemethyl)quinol-8-yloxy]propionic acid ethyl ester]
[1]
  IC50: 15 µM
[2]
  IC50: 39.5 µM
